Test results reported in patent US20220146526A1, “METHOD FOR EVALUATING SAMPLE, ANALYSIS METHOD, METHOD FOR DETECTING DEGRADED SAMPLE, MARKER FOR DETECTING DEGRADED BLOOD PLASMA SAMPLE, AND MARKER FOR DETECTING DEGRADED SERUM SAMPLE” (SHIMADZU CORPORATION, priority 2019, published 2022).

Tests used:
Format in all cases: physicochemical, human
[1] = GC/MS of serum sample: number of times of freezing and thawing (Table I); set-up: key to Rate of increase or decrease / Rate of increase or decrease (first value, increase): detection intensity relative to 2 freeze-thaw cycles = 1; details: for Rate of increase or decrease: detection intensity relative to 1 at 2 times; for Number of times when compound is affected: detection intensity changed by 30% or more vs 2 times of freezing and thawing
Method: (§1) After standing, the blood sample was subjected to centrifugation under a condition of room temperature, 3500 rpm, and 5 minutes. […] After centrifugation, the blood-collecting vessel was left to stand at room temperature, and the serum was isolated during this time. Here, in order to investigate how the detection intensity of molecules contained in the sample was affected in cases where the time during which the blood-collecting vessel was left at room temperature was set to 1 hour and 6 hours as compared to that in a case where the time was set to 30 minutes, preparations were performed under the respective conditions of 30 minutes, 1 hour, and 6 hours. The obtained serum sample was frozen and stored. Here, in order to investigate how the detection intensity of molecules contained in the sample was affected in cases where freezing and thawing was performed 4 times, 6 times, and 10 times after freezing as compared to that in a case where freezing and thawing was performed 2 times after freezing, freezing and thawing was performed under the respective conditions of 2, 4, 6, and 10 times.
(§2) Frozen blood plasma samples and serum samples were subjected to GC/MS or LC/MS. In GC/MS, the blood plasma samples and serum samples were subjected to methoxymation and trimethylsilylation and then introduced to GC-MS.
(§3) GC/MS was conducted using GCMS·TQ8040 (Shimadzu Corporation) that was a GC·MS equipped with AOC·20i (Shimadzu Corporation) as an autosampler.
(§4) Column: BPX5 (inner diameter of 0.25 mm, length of 30 m, and film thickness of 0.25 μm) (SGE)
(§5) Column temperature: maintained at 60° C. for 2 minutes, then raised at 15° C./min, and maintained at 330° C. for 3 minutes.
(§6) Inlet temperature: 250° C.
(§7) Carrier gas control mode: constant linear velocity of 39.0 cm/sec
(§8) Sample introduction method: split (split ratio of 30:1) Injection volume: 1 μL
(§9) Ionization method: electron ionization
(§10) Ionization current: 60 μA
(§11) Interface temperature: 280° C.
(§12) Ion source temperature: 200° C.
(§13) Mode: multiple reaction monitoring (MRM)
The rate of increase or decrease in Table I is the value of detection intensity relative to 1 that is the detection intensity in a case where the number of times of freezing and thawing is set to 2 times.

[2] = GC/MS of serum sample: time from blood collection to centrifugation (Table G); details: blood collection to centrifugation; for Rate of increase or decrease: detection intensity relative to 1 at 15 minutes; for Increase or decrease: detection intensity
Method: as §1, §2, §3, §4, §5, §6, §7, §8, §9, §10, §11, §12, §13
The rate of increase or decrease in Table G is the value of detection intensity relative to 1 that is the detection intensity in a case where the time from blood collection to centrifugation is set to 15 minutes.

[3] = LC/MS of serum sample: number of times of freezing and thawing (Table M)
Method: as §1, §2
Analysis column: Discovery HS F5-3 (inner diameter of 2.1 mm, length of 150 mm, film thickness of 3 μm) (Sigma-Aldrich)
Column temperature: 40° C.
(A) 0.1% formic acid (dissolved in water)
(B) 0.1% formic acid (dissolved in acetonitrile)
Flow velocity: 0.25 mL/min
Ionization method: electrospray
Temperature: • Desolvation Line (DL) temperature: 250° C. • Heat block temperature: 400° C. • Interface temperature: 300° C.
Gas flow rate: • Nebulizer gas flow rate: 3.0 L/min • Drying gas flow rate: 10.0 L/min • Heating gas flow rate: 10.0 L/min
as §13
The rate of increase or decrease in Table M is the value of detection intensity relative to 1 that is the detection intensity in a case where the number of times of freezing and thawing is set to 2 times.

[4] = GC/MS of serum sample: time from centrifugation to isolation (Table H); set-up: key to Rate of increase or decrease / Rate of increase or decrease (first value, increase): detection intensity relative to 1 at 30 min centrifugation-to-isolation; details: for Rate of increase or decrease: detection intensity relative to 1 at 30 minutes; for Increase or decrease: detection intensity
Method: as §1, §2, §3, §4, §5, §6, §7, §8, §9, §10, §11, §12, §13
The rate of increase or decrease in Table H is the value of detection intensity relative to 1 that is the detection intensity in a case where the time from centrifugation to isolation is set to 30 minutes.

[5] = serum, GC/MS, freezing and thawing 6 times
[6] = detection intensity, serum, GC/MS, freezing and thawing 6 times vs 2 times
[7] = 10 times of freezing and thawing
[8] = serum sample, GC/MS, detection intensity vs 2 times of freezing and thawing

SMILES: Nc1c(O)cccc1C(=O)O [3-Hydroxyanthranyl acid]
- Rate of increase or decrease [1, 5]: 1.34
- Increase or decrease [1, 6]: Increase
- Rate of increase or decrease ([2]; after 4 hours): 0.59
- Increase or decrease ([2]; after 4 hours vs 15 minutes): Decrease

SMILES: CC(=O)NCC(=O)O [Acetylglycine]
- Rate of increase or decrease ([2]; after 4 hours): 0.68
- Increase or decrease ([2]; after 4 hours vs 15 minutes): Decrease

SMILES: OC[C@@H](O)[C@@H](O)CO [Meso-erythritol]
- Rate of increase or decrease [1, 7]: 0.69
- Number of times when compound is affected ([1]; serum sample, GC/MS): 10 times
- Increase or decrease [1, 8]: Decrease
- Rate of increase or decrease ([2]; after 8 hours): 0.66
- Increase or decrease ([2]; after 8 hours vs 15 minutes): Decrease

SMILES: CSCC[C@H](N)C(=O)O [Methionine, methionine]
- Rate of increase or decrease ([3]; 6 times of freezing and thawing, detection intensity relative to 1 at 2 times): 0.69
- Number of times when compound is affected ([3]; serum sample, LC/MS, detection intensity changed by 30% or more vs 2 times of freezing and thawing): 6 times
- Increase or decrease ([3]; serum sample, LC/MS, detection intensity vs 2 times of freezing and thawing): Decrease

SMILES: CCCCCCCCC(=O)O [Pelargonic acid, pelargonic acid]
- Rate of increase or decrease [1, 7]: 0.67
- Number of times when compound is affected ([1]; serum sample, GC/MS): 10 times
- Increase or decrease [1, 8]: Decrease

SMILES: NO [Hydroxylamine]
- Rate of increase or decrease ([4]; after 6 hours): 1.87
- Increase or decrease ([4]; after 6 hours vs 30 minutes): Increase
- Rate of increase or decrease [1, 7]: 2.31
- Number of times when compound is affected ([1]; serum sample, GC/MS): 10 times
- Increase or decrease [1, 8]: Increase

SMILES: O=C(O)[C@H](O)[C@@H](O)[C@H](O)[C@H](O)CO [Gluconic acid]
- Increase or decrease ([2]; after 12 hours vs 15 minutes): Increase

SMILES: O[C@H]1[C@H](O)[C@@H](O)[C@H](O)[C@@H](O)[C@H]1O [Inositol]
- Rate of increase or decrease ([2]; after 8 hours): 1.46
- Increase or decrease ([2]; after 8 hours vs 15 minutes): Increase

SMILES: O=C(O)CCC(O)C(=O)O (stereo not shown) [2-Hydroxyglutaric acid]
- Rate of increase or decrease ([4]; after 1 hour): 1.31
- Increase or decrease ([4]; after 1 hour vs 30 minutes): Increase
- Rate of increase or decrease ([2]; after 8 hours): 2.00
- Increase or decrease ([2]; after 8 hours vs 15 minutes): Increase

SMILES: CC(=NO)C(=O)O [Pyruvic oxime]
- Rate of increase or decrease ([4]; after 6 hours): 1.34
- Increase or decrease ([4]; after 6 hours vs 30 minutes): Increase
- Rate of increase or decrease [1, 7]: 1.69
- Number of times when compound is affected ([1]; serum sample, GC/MS): 10 times
- Increase or decrease [1, 8]: Increase

SMILES: CC(C)(O)CC(=O)O [3-Hydroxyisovaleric acid]
- Rate of increase or decrease ([2]; after 12 hours): 1.35
- Increase or decrease ([2]; after 12 hours vs 15 minutes): Increase

SMILES: N[C@H]1C(O)O[C@H](CO)[C@@H](O)[C@@H]1O (stereo partly shown) [Glucosamine]
- Rate of increase or decrease ([4]; after 6 hours): 1.69
- Increase or decrease ([4]; after 6 hours vs 30 minutes): Increase
- Rate of increase or decrease [1, 7]: 2.43
- Number of times when compound is affected ([1]; serum sample, GC/MS): 10 times
- Increase or decrease [1, 8]: Increase

SMILES: CC(=O)C(=O)O [Pyruvic acid]
- Rate of increase or decrease ([4]; after 1 hour): 0.66
- Increase or decrease ([4]; after 1 hour vs 30 minutes): Decrease
- Rate of increase or decrease ([2]; after 4 hours): 0.65
- Increase or decrease ([2]; after 4 hours vs 15 minutes): Decrease

SMILES: O=C[C@H](O)[C@H](O)[C@H](O)[C@H](O)CO [Allose]
- Rate of increase or decrease [1, 5]: 0.62
- Increase or decrease [1, 6]: Decrease

SMILES: CC(C)C(=O)C(=O)O [2-Ketoisovaleric acid]
- Rate of increase or decrease ([2]; after 8 hours): 0.67
- Increase or decrease ([2]; after 8 hours vs 15 minutes): Decrease

SMILES: CCCCCCCCCCCCCCCCC(=O)O [Margaric acid, margaric acid]
- Rate of increase or decrease [1, 7]: 1.35
- Number of times when compound is affected ([1]; serum sample, GC/MS): 10 times
- Increase or decrease [1, 8]: Increase
